Consider 18 compounds from patent publication US10233180B2, “Substituted nitrogen-containing heterocyclic derivatives, pharmaceutical compositions comprising the same and applications of antitumor thereof” (ZHEJIANG UNIVERSITY, priority 2014, dated 2019).

One test concerns the target T1, Akt1 (Homo sapiens, UniProt P31749).
T1 construct: purchased 32-021
The experiment in a line: AKT1/PKBα KinEASE FP Fluorescein Green Assay (fluorescence polarization kinase kit). The class given is biochemical. The note with it: 1 h reaction, read-out: Inhibitory activities against Akt1 (IC50). An outline of the steps:
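FP competition kinase assay: compounds (50 μM stock) with STK Substrate 3 and ATP, 1 h reaction at room temperature; stopped with stop/antibody mix, 4 h at room temperature, then polarization read. Inhibition derived from polarization values; IC50 calculated; triplicate wells.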

The subject of test [1] is Human ovarian cancer cell strain OVCAR-8. The experiment in a line: MTT assay, inhibition of tumor cell growth in vitro, 72 h. The class given is cell-based. Conditions: Homo sapiens, OVCAR-8, MTT, read-out: Antitumor proliferative activities of tumor cell (IC50, μM) OVCAR-8. An outline of the steps:
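OVCAR8 cells in RPMI 1640 plus FBS were seeded at 4000 cells/well and exposed for 72 h at 37 °C to compound at 50, 10, 2, 0.4 and 0.08 μM final, with 1% DMSO as blank. Inhibition was calculated from OD relative to control, and IC50 was derived by the Bliss method.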

Test [2] has as its system human colon cancer cell strain HCT-116. The description is as above. Conditions: Homo sapiens, HCT-116, MTT, read-out: Antitumor proliferative activities of tumor cell (IC50, μM) HCT-116 (converted). It counts as cell-based. An outline of the steps: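 Cells in RPMI 1640 with FBS, 4000 cells/well, exposed 72 h at 37 °C, 5% CO2 to final 50, 10, 2, 0.4 and 0.08 μM; 1% DMSO blank. MTT OD gives % inhibition versus control; IC50 derived by Bliss method.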

T1 sequence (P31749 whole entry): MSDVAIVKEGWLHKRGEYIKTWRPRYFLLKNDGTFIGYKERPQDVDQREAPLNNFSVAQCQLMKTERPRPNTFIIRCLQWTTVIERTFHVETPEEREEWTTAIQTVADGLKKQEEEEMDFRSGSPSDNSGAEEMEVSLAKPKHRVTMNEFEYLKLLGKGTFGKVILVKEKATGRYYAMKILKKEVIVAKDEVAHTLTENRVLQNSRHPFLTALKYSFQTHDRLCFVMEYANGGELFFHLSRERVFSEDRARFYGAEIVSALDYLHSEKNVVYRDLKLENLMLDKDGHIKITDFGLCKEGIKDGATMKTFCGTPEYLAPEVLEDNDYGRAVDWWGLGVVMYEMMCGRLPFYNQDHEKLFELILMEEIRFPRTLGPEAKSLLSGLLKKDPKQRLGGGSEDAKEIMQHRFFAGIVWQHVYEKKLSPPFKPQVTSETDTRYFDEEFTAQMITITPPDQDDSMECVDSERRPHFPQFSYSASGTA

In the case of `Cn1ncc(Cl)c1-c1ccc(C(=O)N[C@@H]2CNCC[C@H]2c2ccc(F)c(F)c2)cc1-c1ccoc1` [Compound 87, 4-(4-chloro-1-methyl-1H-pyrazol-5-yl)-N-((3S,4S)-4-(3,4-difluorophenyl)piperidin-3-yl)-3-(furan-3-yl)benzamide], the figures for the IC50 (at Akt1; in test [1]; in test [2]) were 10 nM, 2.43 µM and 5.63 µM, respectively.
In the case of `Cn1ncc(Br)c1-c1coc(C(=O)N[C@H]2CNCC[C@@H]2c2ccc(C(F)(F)F)cc2)c1` (racemic) [Compound 27, 4-(4-bromo-1-methyl-1H-pyrazol-5-yl)-N-(3,4-trans-4-(4-trifluoromethylphenyl)piperidin-3-yl)furan-2-formamide], the results for the IC50 (on Akt1; in test [1]; in test [2]) were 17 nM, 1.82 µM and 5.89 µM, respectively.
`Cn1ncc(Cl)c1-c1cc(C(=O)N[C@@H]2CNC(CCOC(=O)C(F)(F)F)C[C@H]2c2ccc(F)c(F)c2)oc1Cl` (stereo partly drawn) [Compound 132, 2-((4S,5S)-5-(5-chloro-4-(4-chloro-1-methyl-1H-pyrazol-5-yl)furan-2-formamido)-4-(3,4-difluorophenyl)piperidin-2-yl)ethyl 2,2,2-trifluoroacetate]: the IC50 at Akt1 is 2 nM; in test [1] it was 1.33 µM; in test [2] it was 1.21 µM.
For `CC(=O)OCCC1C[C@@H](c2ccc(F)c(F)c2)[C@H](NC(=O)c2cc(-c3c(Cl)cnn3C)c(Cl)o2)CN1` (stereo partly drawn) [Compound 131, 2-((4S,5S)-5-(5-chloro-4-(4-chloro-1-methyl-1H-pyrazol-5-yl)furan-2-formamido)-4-(3,4-difluorophenyl)piperidin-2-yl)ethylacetate] the same measures were 0.8 nM, 4.69 µM and 0.92 µM.
On the same counts, the results for `Cc1occc1-c1cc(-c2c(Cl)cnn2C)ccc1C(=O)N[C@@H]1CNCC[C@H]1c1cccc(F)c1` [Compound 88, 4-(4-chloro-1-methyl-1H-pyrazol-5-yl)-N-((3S,4S)-4-(3-fluorophenyl)piperidin-3-yl)-2-(2-methylfuran-3-yl)benzamide] are 8 nM, 1.07 µM and 4.21 µM.
In the case of `Cn1ncc(Cl)c1-c1coc(C(=O)N[C@H]2CNCC[C@@H]2c2ccc(C(F)(F)F)cc2)c1` (racemic) [Compound 24, 4-(4-chloro-1-methyl-1H-pyrazol-5-yl)-N-(3,4-trans-4-(4-trifluoromethylphenyl)piperidin-3-yl)furan-2-formamide], the IC50 was 18 nM at Akt1, 0.98 µM in test [1] and 2.9 µM in test [2].
`Cn1ncc(Cl)c1-c1ccc(C(=O)N[C@@H]2CNCC[C@H]2c2cccc3[nH]ccc23)cc1Cl` [Compound 91, N-((3S,4S)-4-(1H-indol-4-yl)piperidin-3-yl)-3-chloro-4-(4-chloro-1-methyl-1H-pyrazol-5-yl)benzamide]: the IC50 is 5 nM at Akt1, 2.91 µM in test [1] and 0.34 µM in test [2].
In the case of `Cn1ncc(Cl)c1-c1cc(C(=O)N[C@@H]2CNCC[C@H]2c2ccc(Cl)c(Cl)c2)oc1Cl` [Compound 40, 5-chloro-4-(4-chloro-1-methyl-1H-pyrazol-5-yl)-N-((3S,4S)-4-(3,4-dichlorophenyl)piperidin-3-yl)furan-2-formamide], the IC50 was 118 nM on Akt1, 1.69 µM in test [1] and 1.56 µM in test [2].
On the same counts, the results for `Cn1ncc(Br)c1-c1coc(C(=O)N[C@H]2CNC[C@@H]2c2ccc(F)c(F)c2)c1` (racemic) [Compound 68, 4-(4-bromo-1-methyl-1H-pyrazol-5-yl)-N-(3,4-trans-4-(3,4-difluorophenyl)pyrrolidin-3-yl)furan-2-formamide] are 679 nM, 4.19 µM and 2.84 µM.
In the case of `Cn1ncc(Br)c1-c1ccc(C(=O)N[C@@H]2CNCC[C@H]2c2ccc(Cl)cc2)cc1` [Compound 72, 4-(4-bromo-1-methyl-1H-pyrazol-5-yl)-N-((3S,4S)-4-(4-chlorophenyl)piperidin-3-yl)benzamide], the IC50 at Akt1 is 6 nM; in test [1], 1.34 µM; in test [2], 0.92 µM.
Take `CCC[C@H]1CNC[C@@H](NC(=O)c2cc(-c3c(Cl)cnn3C)c(Cl)o2)[C@@H]1c1cccc(F)c1` [Compound 137, 5-chloro-4-(4-chloro-1-methyl-1H-pyrazol-5-yl)-N-((3S, 4S, 5R)-4-(3-fluorophenyl)-5-propylpiperidin-3-yl)furan-2-formamide]: the values for the IC50 (on Akt1; in test [1]; in test [2]) were 1 nM, 1.88 µM and 0.43 µM, respectively.
Consider `Cn1ncc(Cl)c1-c1cnc(C(=O)N[C@@H]2CNCC[C@H]2c2ccc(F)c(F)c2)nc1` [Compound 93, 5-(4-chloro-1-methyl-1H-pyrazol-5-yl)-N-((3S,4S)-4-(3,4-difluorophenyl)piperidin-3-yl)pyrimidine-2-formamide], for which the values for the IC50 (on Akt1; in test [1]; in test [2]) were 8 nM, 7.89 µM and 5.82 µM, respectively.
For `Cc1sc(C(=O)N[C@H]2CNCC[C@@H]2c2ccc(F)c(F)c2)nc1-c1c(Cl)cnn1C` (racemic) [Compound 20, 4-(4-chloro-1-methyl-1H-pyrazol-5-yl)-N-(3,4-trans-4-(3,4-difluorophenyl)piperidin-3-yl)-5-methylthiazole-2-formamide] the same measures were 12 nM, 9.91 µM and 2.11 µM.
Take `Cc1cccc([C@H]2CCNC[C@@H]2NC(=O)c2cc(C)c(-c3c(Br)cnn3C)cc2C)c1` (racemic) [Compound 57, 2,5-dimethyl-4-(4-bromo-1-methyl-1H-pyrazol-5-yl)-N-(3,4-trans-4-(3-methylphenyl)piperidin-3-yl)phenyl formamide]: the IC50 at Akt1 is 82 nM; in test [1] it was 12.9 µM; in test [2], 2.5 µM.
In the case of `Cn1ncc(Cl)c1-c1ccc(C(=O)N[C@@H]2CNCC[C@H]2c2ccc(Cl)c(C(F)(F)F)c2)nc1` [Compound 96, 5-(4-chloro-1-methyl-1H-pyrazol-5-yl)-N-((3S,4S)-4-(4-chloro-3-(trifluoromethyl)phenyl)piperidin-3-yl)picolinamide], the IC50 at Akt1 was 9 nM; in test [1], 2.41 µM; in test [2] it was 0.78 µM.
For `C=Cc1cnn(C)c1-c1ccc(C(=O)N[C@@H]2CNCC[C@H]2c2cccc(F)c2)s1` [Compound 144, N-((3S, 4S)-4-(3-fluorophenyl)piperidin-3-yl)-5-(1-methyl-4-vinyl-1H-pyrazol-5-yl)thiophene-2-formamide] the same measures were 2 nM, 3.48 µM and 3.68 µM.
Take `Cn1ncc(-c2ccccc2)c1-c1ccc(C(=O)N[C@@H]2CNCC[C@H]2c2ccc(F)c(F)c2)s1` [Compound 148, N-((3S, 4S)-4-(3,4-difluorophenyl)piperidin-3-yl)-5-(1-methyl-4-phenyl-1H-pyrazol-5-yl)thiophene-2-formamide]: the IC50 at Akt1 was 5 nM; in test [1] it was 0.67 µM; in test [2], 1.23 µM.
Consider `Cn1ncc(Cl)c1-c1cc(C(=O)N[C@@H]2CNC(CCO)C[C@H]2c2ccc(F)c(F)c2)oc1Cl` (stereo partly drawn) [Compound 129, 5-chloro-4-(4-chloro-1-methyl-1H-pyrazol-5-yl)-N-((3S,4S)-4-(3,4-difluorophenyl)-6-(2-hydroxyethyl)piperidin-3-yl)furan-2-formamide], for which the IC50 is 0.4 nM at Akt1, 0.51 µM in test [1] and 0.78 µM in test [2].
